Data on five molecules can be found in ChEMBL document CHEMBL5223088, “EP2 Antagonists (2011-2021): A Decade's Journey from Discovery to Therapeutics” (J Med Chem, 2021).

Data set [1] concerns the target T1, Prostaglandin D2 receptor (Homo sapiens, UniProt Q13258).
T1 sequence (Q13258 whole entry): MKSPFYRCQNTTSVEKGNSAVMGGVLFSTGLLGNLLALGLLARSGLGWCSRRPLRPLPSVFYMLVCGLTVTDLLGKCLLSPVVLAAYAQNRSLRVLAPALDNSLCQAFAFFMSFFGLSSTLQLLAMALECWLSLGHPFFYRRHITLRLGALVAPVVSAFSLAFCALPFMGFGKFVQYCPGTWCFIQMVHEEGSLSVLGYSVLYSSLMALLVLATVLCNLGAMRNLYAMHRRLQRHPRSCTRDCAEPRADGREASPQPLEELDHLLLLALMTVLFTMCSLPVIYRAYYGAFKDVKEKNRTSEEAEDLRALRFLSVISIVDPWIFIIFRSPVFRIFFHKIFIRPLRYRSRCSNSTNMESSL
The data set can be described thus: Binding affinity to human DP1 receptor expressed in CHO cells assessed as inhibition constant. It counts as cell-based.

Data set [2] concerns the target T2, Prostaglandin E2 receptor EP1 subtype (Homo sapiens, UniProt P34995).
T2 sequence (P34995 whole entry): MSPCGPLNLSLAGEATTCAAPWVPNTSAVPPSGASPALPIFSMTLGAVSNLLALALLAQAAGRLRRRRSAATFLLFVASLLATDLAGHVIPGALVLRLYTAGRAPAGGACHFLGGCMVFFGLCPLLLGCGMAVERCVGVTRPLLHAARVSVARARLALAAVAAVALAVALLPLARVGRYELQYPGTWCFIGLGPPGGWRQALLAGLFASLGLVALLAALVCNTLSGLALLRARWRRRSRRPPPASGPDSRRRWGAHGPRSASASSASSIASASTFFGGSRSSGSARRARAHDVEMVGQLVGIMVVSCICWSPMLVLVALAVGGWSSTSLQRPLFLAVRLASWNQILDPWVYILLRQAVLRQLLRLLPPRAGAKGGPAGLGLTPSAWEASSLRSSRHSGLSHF
Kind of data set: Binding affinity to EP1 receptor (unknown origin) assessed as inhibition constant.

In data set [3] the target is T3, Prostaglandin E2 receptor EP3 subtype (Homo sapiens, UniProt P43115).
T3 sequence (P43115 whole entry): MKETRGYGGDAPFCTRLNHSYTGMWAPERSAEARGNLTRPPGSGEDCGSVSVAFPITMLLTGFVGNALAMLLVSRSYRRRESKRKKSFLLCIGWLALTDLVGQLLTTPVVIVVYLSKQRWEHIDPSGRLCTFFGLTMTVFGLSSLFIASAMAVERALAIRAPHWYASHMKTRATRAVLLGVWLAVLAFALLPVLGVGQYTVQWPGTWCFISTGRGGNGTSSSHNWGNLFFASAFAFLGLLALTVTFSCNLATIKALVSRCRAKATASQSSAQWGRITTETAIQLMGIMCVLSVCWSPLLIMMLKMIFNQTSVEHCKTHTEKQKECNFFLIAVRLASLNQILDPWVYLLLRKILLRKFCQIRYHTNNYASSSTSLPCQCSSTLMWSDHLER
The data set can be described thus: Binding affinity to EP3 receptor (unknown origin) assessed as inhibition constant.

The target of data set [4] is T4, Prostaglandin E2 receptor EP4 subtype (Homo sapiens, UniProt P35408). Kind of data set: Binding affinity to human EP4 receptor expressed in CHO cells assessed as inhibition constant. It counts as cell-based.
T4 sequence (P35408 whole entry): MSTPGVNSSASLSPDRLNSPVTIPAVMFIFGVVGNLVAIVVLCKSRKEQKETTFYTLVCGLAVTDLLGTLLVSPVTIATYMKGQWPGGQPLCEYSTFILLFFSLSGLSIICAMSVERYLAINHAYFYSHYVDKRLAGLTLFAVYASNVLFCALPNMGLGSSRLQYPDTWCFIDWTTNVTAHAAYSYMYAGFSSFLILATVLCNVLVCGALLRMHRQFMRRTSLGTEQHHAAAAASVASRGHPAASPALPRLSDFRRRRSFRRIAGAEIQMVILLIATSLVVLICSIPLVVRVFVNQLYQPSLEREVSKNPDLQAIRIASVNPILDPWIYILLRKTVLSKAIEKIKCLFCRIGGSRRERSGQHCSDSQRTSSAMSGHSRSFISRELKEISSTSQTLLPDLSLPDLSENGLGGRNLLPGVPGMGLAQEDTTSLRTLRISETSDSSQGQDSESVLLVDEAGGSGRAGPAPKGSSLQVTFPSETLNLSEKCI
In data set [5] the target is T5, Prostaglandin E2 receptor EP2 subtype (Homo sapiens, UniProt P43116). The data set can be described thus: Binding affinity to human EP2 receptor expressed in rat C6 cells assessed as binding constant. The data set is classed as cell-based. As to conditions: filed as antagonist.
T5 sequence (P43116 whole entry): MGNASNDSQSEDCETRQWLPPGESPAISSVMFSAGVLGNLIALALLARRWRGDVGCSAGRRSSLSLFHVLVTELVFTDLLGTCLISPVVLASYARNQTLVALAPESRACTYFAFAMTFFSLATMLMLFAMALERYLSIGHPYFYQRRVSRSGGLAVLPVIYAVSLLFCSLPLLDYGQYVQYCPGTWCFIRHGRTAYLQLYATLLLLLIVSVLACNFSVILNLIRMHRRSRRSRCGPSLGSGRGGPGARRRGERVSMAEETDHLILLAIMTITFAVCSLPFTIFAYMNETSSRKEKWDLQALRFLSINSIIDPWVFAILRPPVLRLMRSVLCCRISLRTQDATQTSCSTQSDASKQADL
Data set [6] has as its target T6, Prostaglandin D2 receptor (Homo sapiens) (UniProt Q13258).
T6 sequence (whole entry): T1 sequence (Q13258 whole entry)
The data set can be described thus: Binding affinity to human DP1 receptor expressed in rat C6 cells assessed as binding constant. It counts as cell-based. As to conditions: filed as antagonist.

Data set [7] has as its target T4, Prostaglandin E2 receptor EP4 subtype. Kind of data set: Binding affinity to EP4 receptor (unknown origin) assessed as binding constant. As to conditions: filed as antagonist.
Data set [8] can be described thus: Half life in C57BL/6 mouse at 10 mg/kg, po by LC-MS/MS analysis. The data set is classed as ADME, organism-based. As to conditions: in vivo.
Data set [9] is described as follows: Ratio of drug level in brain to plasma in C57BL/6 mouse at 10 mg/kg, po by LC-MS/MS analysis. As to conditions: read-out: BPR. The data set is classed as ADME, organism-based.
The nature of data set [10]: Aqueous solubility of compound in PBS buffer at pH 7.4 by nephelometric analysis. It counts as ADME.
A short description of data set [11]: Ratio of drug level in brain to plasma in C57BL/6 mouse at 3 mg/kg, ip by LC-MS/MS analysis. It counts as ADME, organism-based. As to conditions: read-out: BPR.
Data set [12] is described as follows: Solubility of the compound. The data set is classed as ADME.
For data set [13], the target named is T5, Prostaglandin E2 receptor EP2 subtype. The data set can be described thus: Binding affinity to EP2 receptor in human mast cell assessed as inhibition constant. The data set is classed as cell-based.
Data set [14] addresses T1, Prostaglandin D2 receptor. Kind of data set: Binding affinity to DP1 receptor in human mast cell assessed as inhibition constant. The data set is classed as cell-based.
Data set [15] deals with T4, Prostaglandin E2 receptor EP4 subtype. The data set can be described thus: Binding affinity to EP4 receptor in human mast cell assessed as inhibition constant. The data set is classed as cell-based.
Data set [16] deals with T5, Prostaglandin E2 receptor EP2 subtype. The data set can be described thus: Potency index, ratio of PF-0418948 Ki to test compound Ki for binding affinity to human EP2.
Data set [17] shares this target. Kind of data set: Binding affinity to human EP2 receptor expressed in C6 cells assessed as binding constant at 10 mins by TR-FRET cAMP functional assay. It counts as cell-based. As to conditions: filed as antagonist. (Time-resolved FRET reads energy transfer from a long-lived donor to a nearby acceptor.)
A short description of data set [18]: Half life in mouse C57BL/6 plasma at 20 mg/kg,ip by LC-MS/MS analysis. The data set is classed as ADME, organism-based. As to conditions: C57BL/6, mouse.
Data set [19] can be described thus: Ratio of drug level in brain to plasma in C57BL/6 mouse at 20 mg/kg, ip by LC-MS/MS analysis. The data set is classed as ADME, organism-based. As to conditions: read-out: BPR.
Data set [20] in a line: Ratio of drug level in brain to plasma in pilocarpine-induced Sprague-Dawley rat at 25 mg/kg, ip after 6 hrs by LC-MS/MS analysis.

≈ marks a conversion by molar mass, not a printed value.

A word on the Ki: it is a dissociation constant, usually derived from enzyme kinetics or from competition with a known ligand. For the molecule `COc1ccc2cc(OCC3(C(=O)O)CN(C(=O)c4ccc(F)cc4)C3)ccc2c1` [PF-04418948], the Ki in [1], in data set [2], in [3] and in [4] was greater than 10 µM each time.

For orientation: Kb means the equilibrium dissociation constant of an antagonist, usually derived from a functional assay. As usually defined, the half-life is how long it takes for the measured level to halve. As usually defined, the solubility (kinetic) is solubility judged after dilution from a stock solution rather than from solid. For `Cc1cc2ccccc2n1CCNC(=O)c1ccc(-c2nnn[nH]2)cc1`, the antagonist dissociation constant (Kb) in data set [5] stood at 0.0485 µM; in data set [6] it was 18 µM; in data set [7] it was 15 µM. Moreover, the half-life in data set [8] was 10.5 h. Also, the Kp in data set [9] came out at 0.02. The molecule also had a solubility (kinetic) in data set [10] of 500 µM (≈ 173 µg/mL).

In general, solubility refers to how much of the substance goes into solution per volume. As for `COc1cc(/C=C/C(=O)NCCn2c(C)cc3ccccc32)cc(OC)c1OC`, the Kp in data set [11] amounted to 0.3. Moreover, the solubility in [12] is 45 µM (≈ 17.8 µg/mL).

With `COc1ccc(C(=O)N2CCC(COc3ccc(-c4ccc(C#N)cc4)cc3)(C(=O)O)C2)cc1` (stereo not given), the results for the inhibition constant Ki in data set [13], in [14] and in [15] were 0.00063 µM, 1.2 µM and 16.3 µM, respectively. Besides, in [16], the Ratio Ki is 10.

On to `Cc1[nH]c2ccccc2c1CCNC(=O)c1ccc(-c2c[nH]cn2)cc1`, for which the antagonist dissociation constant (Kb) in [17] was determined as 0.0132 µM. For the same molecule, in data set [18], the half-life is 2.8 h. The Kp in data set [19] turned out to be 0.02. Besides, the Kp at 6 h in data set [20] is 0.03.
